# From patent publication US5811398A, “Platelet aggregation inhibitors containing C-terminal aminergic side chain amino acid residues” (G. D. Searle & Co., priority 1995, dated 1998)
# pIC50: −log10 of the molar value.
# Tested on: ADP-induced platelet aggregation in dog platelet-rich plasma (PRP)
# Test: In-Vitro Platelet Aggregation in PRP
# Assay type: cell-based
# Details: aggregation induced by ADP (50 μm final concentration), 1 minute preincubation at 37° C.
# Protocol: In-Vitro Platelet Aggregation in PRP
# Healthy male or female dogs were fasted for 8 hours prior to drawing blood; then 30 ml whole blood was collected using a butterfly needle and 30 cc plastic syringe with 3 ml of 0.129M buffered sodium citrate (3.8%). The syringe was rotated carefully as blood was drawn to mix the citrate. Platelet-rich plasma (PRP) was prepared by centrifugation at 975×g for 3.17 minutes at room temperature, allowing the centrifuge to coast to a stop without braking. The PRP was removed from the blood with a plastic pipette and placed in a plastic capped, 50 ml Corning conical sterile centrifuge tube which was held at room temperature. Platelet poor plasma (PPP) was prepared by centrifuging the remaining blood at 2000×g for 15 minutes at room temperature allowing the centrifuge to coast to a stop without braking. The PRP was adjusted with PPP to a count of 2-3×10^8 platelets per ml. 400 μl of the PRP preparation and 50 μl of the compound to be tested or saline were preincubated for 1 minute at 37° C. in a BioData aggregometer (BioData, Horsham, Pa.). 50 μl of adenosine 5'-diphosphate (ADP) (50 μm final concentration) was added to the cuvettes and the aggregation was monitored for 1 minute. […] Results are calculated as follows: [formula]
# The assay results for the compound of Example 1 and its median inhibitory concentration (IC50) is recorded in Table I.
compound,measurement,value
"N=C(N)c1ccc(NC(=O)CCC(=O)N[C@@H](CC(=O)O)C(=O)N[C@@H](CCCCN)C(=O)O)cc1 [Example 1, N-[4-[[4-(aminoiminomethyl)phenyl]amino]-1,4-dioxobutyl]-L-aspartyl]-L-lysine bistrifluoroacetate]",pIC50,6.74
